Measurements as given in patent US20210386068A1, “COMPOSITIONS COMPRISING PYRIDINE CARBOXYLATE HERBICIDES AND VERY LONG CHAIN FATTY ACID (VLCFA) SYNTHESIS INHIBITOR HERBICIDES” (priority 2018, published 2021).
Several values for one entry are separate records, joined by “and”; a condition that tells them apart may be missing. Identical values can stand only once.

Columns and labels:
[1] = system: Brassica napus (winter rape, BRSNW); assay: Greenhouse postemergence herbicidal effect, visual injury 20-22 d after spraying, winter rape (BRSNW); format: in vivo; details: for % visual injury Obs: BRSNW
Source text: (§1) Seeds of the desired test plant species were planted in a 90:10% v/v (volume/volume) mixture of PRO-MIX® BX (Premier Tech Horticulture, Quakertown, Pa., USA) and PROFILE® GREENS GRADE™ (Profile Products LLC, Buffalo Grove, Ill., USA) planting mixture, which typically has a pH of 5.2 to 6.2 and an organic matter content of at least 50 percent, in plastic pots with a surface area of 103.2 square centimeters (cm^2). In some aspects, to ensure good germination and healthy plants, a fungicide treatment and/or other chemical or physical treatment was applied. The plants were grown for 7-36 days (d) in a greenhouse with an approximate 14-hour (h) photoperiod which was maintained at about 23° C. during the day and 22° C. during the night. Nutrients and water were added on a regular basis and supplemental lighting was provided with overhead metal halide 1000-Watt lamps as necessary. The plants were employed for testing when they reached the second or third true leaf stage.
(§2) Emulsifiable concentrates of each of each pyridine carboxylate herbicide (Compound A or Compound B) were prepared at 100 grams acid equivalent per liter (g ae/L). The emulsifiable concentrates also included a safener, cloquintocet-mexyl, at 120 grams active ingredient per liter (g ai/L). An aliquot of each emulsifiable concentrate was placed in a 25 mL glass vial and diluted with an aqueous mixture of 1.25% (v/v) ACTIROB® B esterified rapeseed oil (Bayer Crop Science, Research Triangle Park, N.C., USA) or MSO® Concentrate with LECI-TECH® methylated soybean oil (Loveland Products, Loveland, Colo., USA) to obtain concentrated stock solutions at the highest application rate for each herbicide, based upon a 12 milliliter (mL) application volume at a rate of 187 liters per hectare (L/ha). The concentrated stock solutions were further diluted with an aqueous mixture of 1.25% v/v ACTIROB® B or MSO® Concentrate with LECI-TECH® to obtain stock solutions at reduced application rates for each herbicide. Spray solutions of the herbicide combinations (Compound A or Compound B plus VLCFA synthesis inhibitor herbicide) were prepared by adding weighed amounts or aliquots of the VLCFA synthesis inhibitor herbicide to the stock solutions of Compound A or Compound B to form 12-mL spray solutions in two-way combinations.
(§3) The spray solutions were applied to the plant material with an overhead Mandel track sprayer equipped with 8002E nozzles calibrated to deliver 187 L/ha over an application area of 0.503 square meters (m^2) at a spray height of 18 inches ([…] (cm)) above the average plant canopy. Control plants were sprayed in the same manner with the solvent blank. All pyridine carboxylate herbicide (component a) application rates are given as “g ae/ha” and all VLCFA synthesis inhibitor herbicide (component b) application rates are given as “g ai/ha.”
(§4) The treated plants and control plants were placed in a greenhouse as described above and watered by sub-irrigation to prevent wash-off of the test compounds. After 20-22 d, the condition of the test plants as compared with that of the control plants was determined visually and scored on a scale of 0 to 100 percent where 0 corresponds to no injury and 100 corresponds to complete kill.

[2] = system: Polygonum convolvulus (wild buckwheat, POLCO); assay: Greenhouse postemergence herbicidal effect, visual injury 20-22 d after spraying, wild buckwheat (POLCO); format: in vivo
Source text: as §1, §2, §3, §4

[3] = system: Sinapis arvensis (wild mustard, SINAR); assay: Greenhouse postemergence herbicidal effect, visual injury 20-22 d after spraying, wild mustard (SINAR); format: in vivo; details: for % visual injury Obs: SINAR
Source text: as §1, §2, §3, §4

[4] = system: Kochia scoparia (kochia, KCHSC); assay: Greenhouse postemergence herbicidal effect, visual injury 20-22 d after spraying, kochia (KCHSC); format: in vivo; details: for % visual injury Obs: KCHSC
Source text: as §1, §2, §3, §4

[5] = system: Triticum aestivum (spring wheat, TRZAS); assay: Greenhouse postemergence crop phytotoxicity, visual injury 20-22 d after spraying, spring wheat (TRZAS); format: in vivo; details: for % visual injury Obs: TRZAS
Source text: as §1, §2, §3, §4

[6] = system: Abutilon theophrasti (velvetleaf, ABUTH); assay: Greenhouse postemergence herbicidal effect, visual injury 20-22 d after spraying, velvetleaf (ABUTH); format: in vivo
Source text: as §1
(§5) Emulsifiable concentrates of each of each pyridine carboxylate herbicide (Compound A or Compound B) were prepared at 100 grams acid equivalent per liter (g ae/L). The emulsifiable concentrates also included a safener, cloquintocet-mexyl, at 120 grams active ingredient per liter (g ai/L). […]
as §4

[7] = system: Helianthus annuus (common sunflower, HELAN); assay: Greenhouse postemergence herbicidal effect, visual injury 20-22 d after spraying, common sunflower (HELAN); format: in vivo
Source text: as §1, §5, §4

[8] = system: Viola arvensis (field pansy, VIOAR); assay: Greenhouse postemergence herbicidal effect, visual injury 20-22 d after spraying, field pansy (VIOAR); format: in vivo
Source text: as §1, §2, §3, §4

[9] = system: Anthemis arvensis (corn chamomile, ANTAR); assay: Greenhouse postemergence herbicidal effect, visual injury 20-22 d after spraying, corn chamomile (ANTAR); format: in vivo
Source text: as §1, §2, §3, §4

[10] = system: Cyanus segetum (cornflower, CENCY); assay: Greenhouse postemergence herbicidal effect, visual injury 20-22 d after spraying, cornflower (CENCY); format: in vivo
Source text: as §1, §2, §3, §4

winter wheat (TRZAW) = assay: Greenhouse postemergence crop phytotoxicity, visual injury 20-22 d after spraying, winter wheat (TRZAW); format: in vivo, Triticum aestivum
Source text: as §1, §2, §3, §4

winter barley (HORVW) = assay: Greenhouse postemergence crop phytotoxicity, visual injury 20-22 d after spraying, winter barley (HORVW); format: in vivo, Hordeum vulgare
Source text: as §1, §2, §3, §4

N#CCOC(=O)c1nc(-c2ccc3cc[nH]c3c2F)c(F)c(N)c1Cl [Compound A, cyanomethyl 4-amino-3-chloro-5-fluoro-6-(7-fluoro-1H-indol-6-yl)pyridine-2-carboxylate]
% visual injury Obs ([1]; Compound A 7.5 g/ha alone): 35% | % visual injury Obs ([1]; Compound A 10 g/ha alone): 43% and 40% | % visual injury BRSNW Obs ([1]; Compound A 7.5 g/ha): 60% | % visual injury BRSNW Obs ([1]; Compound A 10 g/ha): 65% | % visual injury BRSNW Obs ([1]; Compound A 15 g/ha): 73% | % visual injury POLCO Obs ([2]; Compound A 7.5 g/ha): 65% | % visual injury POLCO Obs ([2]; Compound A 10 g/ha): 78% | % visual injury POLCO Obs ([2]; Compound A 15 g/ha): 85% | % visual injury SINAR Obs ([3]; Compound A 7.5 g/ha): 88% | % visual injury SINAR Obs ([3]; Compound A 10 g/ha): 91% | % visual injury SINAR Obs ([3]; Compound A 15 g/ha): 91% | % visual injury Obs ([3]; Compound A 7.5 g/ha alone): 88% and 85% and 83% | % visual injury Obs ([3]; Compound A 10 g/ha alone): 90% and 92% and 88% | % visual injury KCHSC Obs ([4]; Compound A 7.5 g/ha): 63% | % visual injury KCHSC Obs ([4]; Compound A 10 g/ha): 65% | % visual injury KCHSC Obs ([4]; Compound A 15 g/ha): 63% | % visual injury Obs ([4]; Compound A 7.5 g/ha alone): 63% and 50% and 70% | % visual injury Obs ([4]; Compound A 10 g/ha alone): 63% and 58% and 55% and 70% | % visual injury TRZAS Obs ([5]; Compound A 7.5 g/ha): 0% | % visual injury TRZAS Obs ([5]; Compound A 10 g/ha): 0% | % visual injury TRZAS Obs ([5]; Compound A 15 g/ha): 0% | % visual injury Obs ([5]; Compound A 7.5 g/ha alone): 0% | % visual injury Obs ([5]; Compound A 10 g/ha alone): 0% | % visual injury Obs ([6]; Compound A 7.5 g/ha alone): 40% | % visual injury Obs ([6]; Compound A 10 g/ha alone): 48% | % visual injury Obs ([7]; Compound A 7.5 g/ha alone): 83% | % visual injury Obs ([7]; Compound A 10 g/ha alone): 88% | % visual injury VIOAR Obs ([8]; Compound A 7.5 g/ha): 10% | % visual injury VIOAR Obs ([8]; Compound A 10 g/ha): 13% | % visual injury VIOAR Obs ([8]; Compound A 15 g/ha): 10% | % visual injury ANTAR Obs ([9]; Compound A 7.5 g/ha): 68% | % visual injury ANTAR Obs ([9]; Compound A 10 g/ha): 70% | % visual injury ANTAR Obs ([9]; Compound A 15 g/ha): 88% | % visual injury CENCY Obs ([10]; Compound A 7.5 g/ha): 75% | % visual injury CENCY Obs ([10]; Compound A 10 g/ha): 78% | % visual injury CENCY Obs ([10]; Compound A 15 g/ha): 80% | % visual injury TRZAW Obs (winter wheat (TRZAW); Compound A 7.5 g/ha): 0% | % visual injury TRZAW Obs (winter wheat (TRZAW); Compound A 10 g/ha): 0% | % visual injury TRZAW Obs (winter wheat (TRZAW); Compound A 15 g/ha): 0% | % visual injury HORVW Obs (winter barley (HORVW); Compound A 7.5 g/ha): 0% | % visual injury HORVW Obs (winter barley (HORVW); Compound A 10 g/ha): 0% | % visual injury HORVW Obs (winter barley (HORVW); Compound A 15 g/ha): 0%
